Data taken from US20250154152A1, “INHIBITORS OF NAEGLERIA FOWLERI” (Wisconsin Alumni Research Foundation, priority 2023, published 2025).
Where two headings read alike, the source gives them in different places.

System: N. fowleri strain Nf69 (ATCC 30215) trophozoites
Assay: Determination of EC50 values against Naegleria fowleri (growth inhibition, CellTiter Glo, 48 h)
Format: cell-based
Details: read-out: EC50 uM against N. fowleri
Description: N. fowleri strain Nf69 (ATCC 30215) trophozoites were cultured axenically. Amoeba were seeded at […] in 100 μL of the indicated medium in white TC-treated 96-well plates (Thermo Scientific Nunc Microwell 136101). Cells were seeded into Nelson's Complete Media (NCM, 0.17% liver infusion broth (BD Difco, Franklin Lakes, NJ), 0.17% glucose, 0.012% sodium chloride, 0.0136% potassium phosphate monobasic, 0.0142% sodium phosphate dibasic, 0.0004% calcium chloride, 0.0002% magnesium sulfate, 10% heat-inactivated fetal bovine serum (FBS), 1% penicillin-streptomycin) at 37° C. in 96-well tissue culture plates. Vehicle or compound at concentrations initially ranging from 20 to 0.375 μM were added to cells, followed by culture for 48 h (37° C., 5% CO2). Plates were equilibrated to rt for 15 min and CellTiter Glo reagent was added followed by orbital shaking for 2 min. After an additional incubation (rt, 10 min), luminescence was scored on a BioTek Synergy H1 microplate reader. Luminescence values were used to calculate percent cell growth inhibition (based on controls) for each concentration of compound tested. Averages of triplicates were calculated and fit to dose-response curves for the determination of EC50 values, using Prism 9.0 (GraphPad Software, San Diego, CA). […] Other controls included media alone, cells and media, and vehicle and media. For very potent compounds, concentration of reagent in the dose-response assays were reduced to provide an appropriate range for EC50 value resolution.
Compounds of the present technology were tested for growth inhibition of N. fowleri per General Procedure 13, above.

[1] = ATCC30215, N. fowleri Nf69 trophozoites, 48 h culture, 37° C., CellTiter Glo luminescence

| EC50 [1] | Compound | EC50 (ATCC30215, 48 h) |
| --- | --- | --- |
| > 10 µM | Cn1c([C@@H]2CCCN(CC3CCOCC3)C2)nc2cc(Cl)c(Cl)cc2c1=O [Compound R-14d, (R)-6,7-dichloro-3-methyl-2-(1-((tetrahydro-2H-pyran-4-yl)methyl)piperidin-3-yl)quinazolin-4(3H)-one] | – |
| 0.1 to 1 µM | Cn1c([C@@H]2CCCN(CCN3CCCC3)C2)nc2cc(Cl)c(Cl)cc2c1=O [Compound R-14dd, (R)-6,7-dichloro-3-methyl-2-(1-(2-(pyrrolidin-1-yl)ethyl)piperidin-3-yl)quinazolin-4(3H)-one] | – |
| > 10 µM | CC(C)(C)c1ccc(CN2CCC[C@@H]3c4nc5cc(Cl)c(Cl)cc5c(=O)n4CC[C@H]32)cc1 (racemic) [trans-7s, (±)-(4aR,13bS)-4-(4-(tert-butyl)benzyl)-10,11-dichloro-1,2,3,4,4a,5,6,13b-octahydro-8H-[1,6]naphthyridino[5,6-b]quinazolin-8-one] | – |
| 0.0001 to 0.1 µM | O=c1c2cc(Cl)c(Cl)cc2nc2n1CC[C@@H]1[C@@H]2CCCN1Cc1cccnc1 (racemic) [trans-7bb, (±)-(4aR,13bS)-10,11-dichloro-4-(pyridin-3-ylmethyl)-1,2,3,4,4a,5,6,13b-octahydro-8H-[1,6]naphthyridino[5,6-b]quinazolin-8-one] | – |
| 0.1 to 1 µM | COc1cc2nc3n(c(=O)c2cc1Cl)CC[C@@H]1[C@@H]3CCCN1CC(C)C (single isomer, unassigned) [trans-10g-ent-1] | – |
| > 10 µM | Cn1c([C@H]2CCCN(CCN3CCCC3)C2)nc2cc(Cl)c(Cl)cc2c1=O [Compound S-14cc, (S)-6,7-dichloro-3-methyl-2-(1-(2-(pyrrolidin-1-yl)ethyl)piperidin-3-yl)quinazolin-4(3H)-one] | – |
| 0.1 to 1 µM | CN(C)CC(=O)N1CCC[C@@H]2c3nc4cc(Cl)c(Cl)cc4c(=O)n3CC[C@H]21 (racemic) [trans-7g, (±)-(4aR,13bS)-10,11-dichloro-4-(dimethylglycyl)-1,2,3,4,4a,5,6,13b-octahydro-8H-[1,6]naphthyridino[5,6-b]quinazolin-8-one] | – |
| 0.1 to 1 µM | CC(C)NCCN1CCC[C@@H]2c3nc4cc(Cl)c(Cl)cc4c(=O)n3CC[C@H]21 (racemic) [trans-7aa, (±)-(4aR,13bS)-10,11-dichloro-4-(2-(isopropylamino)ethyl)-1,2,3,4,4a,5,6,13b-octahydro-8H-[1,6]naphthyridino[5,6-b]quinazolin-8-one] | – |
| 0.0001 to 0.1 µM | O=c1c2cc(Cl)c(Cl)cc2nc2n1CC[C@@H]1[C@@H]2CCCN1CC1CC1 (racemic) [trans-7q, (±)-(4aR,13bS)-10,11-dichloro-4-(cyclopropylmethyl)-1,2,3,4,4a,5,6,13b-octahydro-8H-[1,6]naphthyridino[5,6-b]quinazolin-8-one] | – |
| 0.1 to 1 µM | O=c1c2cc(Cl)c(Cl)cc2nc2n1CC[C@@H]1[C@@H]2CCCN1Cc1ccncc1 (racemic) [trans-7k, (±)-(4aR,13bS)-10,11-dichloro-4-(pyridin-4-ylmethyl)-1,2,3,4,4a,5,6,13b-octahydro-8H-[1,6]naphthyridino[5,6-b]quinazolin-8-one] | – |
| 0.1 to 1 µM | COc1cc2nc3n(c(=O)c2cc1Cl)CC[C@@H]1[C@@H]3CCCN1CC(C)C (racemic) [trans-7ee, (±)-(4aR,13bS)-10-chloro-4-isobutyl-11-methoxy-1,2,3,4,4a,5,6,13b-octahydro-8H-[1,6]naphthyridino[5,6-b]quinazolin-8-one] | – |
| 0.1 to 1 µM | COc1cc2nc3n(c(=O)c2cc1Cl)CC[C@@H]1[C@@H]3CCCN1CCOC(C)C (racemic) [trans-7ff, (±)-(4aR,13bS)-10-chloro-4-(2-isopropoxyethyl)-11-methoxy-1,2,3,4,4a,5,6,13b-octahydro-8H-[1,6]naphthyridino[5,6-b]quinazolin-8-one] | – |
| 0.0001 to 0.1 µM | COc1cc2nc3n(c(=O)c2cc1Cl)CC[C@@H]1[C@@H]3CCCN1CC1CC1 (racemic) [trans-7gg, (±)-(4aR,13bS)-10-chloro-4-(cyclopropylmethyl)-11-methoxy-1,2,3,4,4a,5,6,13b-octahydro-8H-[1,6]naphthyridino[5,6-b]quinazolin-8-one] | – |
| > 10 µM | Cn1c([C@@H]2CCCN(CC3COC3)C2)nc2ccc(C(F)(F)F)cc2c1=O [Compound R-14t, (R)-3-methyl-2-(1-(oxetan-3-ylmethyl)piperidin-3-yl)-6-(trifluoromethyl)quinazolin-4(3H)-one] | – |
| > 10 µM | Cn1c([C@@H]2CCCN(CC3COC3)C2)nc2ccc(F)cc2c1=O [Compound R-14q, (R)-6-fluoro-3-methyl-2-(1-(oxetan-3-ylmethyl)piperidin-3-yl)quinazolin-4(3H)-one] | – |
| > 10 µM | Cn1c(C2CN(CC3COC3)C2)nc2cc(Cl)c(Cl)cc2c1=O [Compound 14i, 6,7-dichloro-3-methyl-2-(1-(oxetan-3-ylmethyl)azetidin-3-yl)quinazolin-4(3H)-one] | – |
| – | CC(C)OCCN1CCC[C@@H]2c3nc4cc(Cl)c(Cl)cc4c(=O)n3CC[C@H]21 (racemic) [trans-7z, (±)-(4aR,13bS)-10,11-dichloro-4-(2-isopropoxyethyl)-1,2,3,4,4a,5,6,13b-octahydro-8H-[1,6]naphthyridino[5,6-b]quinazolin-8-one] | 0.0001 to 0.1 µM |
| > 10 µM | O=C(N1CCOCC1)N1CCC[C@@H]2c3nc4cc(Cl)c(Cl)cc4c(=O)n3CC[C@H]21 (racemic) [trans-7f, (±)-(4aR,13bS)-10,11-dichloro-4-(morpholine-4-carbonyl)-1,2,3,4,4a,5,6,13b-octahydro-8H-[1,6]naphthyridino[5,6-b]quinazolin-8-one] | – |

| Compound | EC50 [1] | EC50 (ATCC30215, 48 h) |
| --- | --- | --- |
| CN1CC[C@H]2c3nc4ccc(Cl)cc4c(=O)n3CC[C@H]21 (racemic) [cis-5hh, (±)-(3aR,12bR)-9-chloro-3-methyl-2,3,3a,4,5,12b-hexahydropyrrolo[3′,2′:3,4]pyrido[2,1-b]quinazolin-7(1H)-one] | > 10 µM | – |
| CN1CCC[C@H]2c3nc4ccc(C#N)cc4c(=O)n3CC[C@H]21 (racemic) [cis-5i, (±)-(4aR,13bR)-4-methyl-8-oxo-2,3,4,4a,5,6,8,13b-octahydro-1H-[1,6]naphthyridino[5,6-b]quinazoline-10-carbonitrile] | 1 to 10 µM | – |
| COc1cc(Cl)cc2c(=O)n3c(nc12)[C@H]1CCCN(C)[C@@H]1CC3 (racemic) [trans-5t, (±)-(4aR,13bS)-10-chloro-12-methoxy-4-methyl-1,2,3,4,4a,5,6,13b-octahydro-8H-[1,6]naphthyridino[5,6-b]quinazolin-8-one] | > 10 µM | – |
| CC(C)N1CCC[C@@H]2c3nc4cc(Cl)c(Cl)cc4c(=O)n3CC[C@H]21 (racemic) [trans-7a, (±)-(4aR,13bS)-10,11-dichloro-4-isopropyl-1,2,3,4,4a,5,6,13b-octahydro-8H-[1,6]naphthyridino[5,6-b]quinazolin-8-one] | 0.0001 to 0.1 µM | – |
| CN1CCC[C@@H]2c3nc4cc(F)ccc4c(=O)n3CC[C@H]21 (racemic) [trans-5m, (±)-(4aR,13bS)-11-fluoro-4-methyl-1,2,3,4,4a,5,6,13b-octahydro-8H-[1,6]naphthyridino[5,6-b]quinazolin-8-one] | > 10 µM | – |
| COc1cc2nc3n(c(=O)c2cc1Cl)CC[C@@H]1[C@H]3CCCN1C (racemic) [cis-5gg, (±)-(4aR,13bR)-10-chloro-11-methoxy-4-methyl-1,2,3,4,4a,5,6,13b-octahydro-8H-[1,6]naphthyridino[5,6-b]quinazolin-8-one] | 0.1 to 1 µM | – |
| CCN1CCC[C@H]2c3nc4ccccc4c(=O)n3CC[C@H]21 (racemic) [cis-5z, (±)-(4aR,13bR)-4-ethyl-1,2,3,4,4a,5,6,13b-octahydro-8H-[1,6]naphthyridino[5,6-b]quinazolin-8-one] | > 10 µM | – |
| O=c1c2cc(Cl)c(Cl)cc2nc2n1CC[C@@H]1[C@@H]2CCCN1CCO (racemic) [trans-7j, (±)-(4aR,13bS)-10,11-dichloro-4-(2-hydroxyethyl)-1,2,3,4,4a,5,6,13b-octahydro-8H-[1,6]naphthyridino[5,6-b]quinazolin-8-one] | 0.0001 to 0.1 µM | – |
| COc1ccc2nc3n(c(=O)c2c1)CC[C@@H]1[C@@H]3CCCN1C (racemic) [trans-5g, (±)-(4aR,13bS)-10-methoxy-4-methyl-1,2,3,4,4a,5,6,13b-octahydro-8H-[1,6]naphthyridino[5,6-b]quinazolin-8-one] | 1 to 10 µM | – |
| COc1cc2nc3n(c(=O)c2cc1Cl)CC[C@H]1NCCC[C@H]31 (racemic) [trans-6c, (±)-(4aR,13bS)-10-chloro-11-methoxy-1,2,3,4,4a,5,6,13b-octahydro-8H-[1,6]naphthyridino[5,6-b]quinazolin-8-one] | 1 to 10 µM | – |
| CN1CCC[C@H]2c3nc4cc(F)ccc4c(=O)n3CC[C@H]21 (racemic) [cis-5m, (±)-(4aR,13bR)-11-fluoro-4-methyl-1,2,3,4,4a,5,6,13b-octahydro-8H-[1,6]naphthyridino[5,6-b]quinazolin-8-one] | > 10 µM | – |
| CN1CC[C@H]2c3nc4cc(F)c(F)cc4c(=O)n3CC[C@H]21 (racemic) [cis-5ee, (±)-(3aR,12bR)-9,10-difluoro-3-methyl-2,3,3a,4,5,12b-hexahydropyrrolo[3′,2′:3,4]pyrido[2,1-b]quinazolin-7(1H)-one] | > 10 µM | – |
